The text below walks through data of paper PMC10899635, “Q586B2 is a crucial virulence factor during the early stages of Trypanosoma brucei infection that is conserved amongst trypanosomatids” (Nature Communications, 2024).

Assay [1] concerns the target T1, rmMIF (Mus musculus, UniProt P34884).
T1 construct: gene Mif; commercial recombinant (R&D systems); trimer
The assay is described as follows: dopachrome methyl ester tautomerase assay, OD475 nm. The assay is classed as biochemical. Particulars: 83.3 nM protein preincubated 1 h at 37 °C with 10 µM ISO-1; pH 6.0, 25 °C.

Assay [2] deals with T2, Q586B2 (Trypanosoma brucei, UniProt Q586B2).
T2 construct: gene Tb06.4F7.140; full length, 115 aa, 13 kDa; N-terminal His6- and FLAG-tag (removable); codon-optimized, E. coli WK6
T2 sequence (Q586B2 entry or part of it): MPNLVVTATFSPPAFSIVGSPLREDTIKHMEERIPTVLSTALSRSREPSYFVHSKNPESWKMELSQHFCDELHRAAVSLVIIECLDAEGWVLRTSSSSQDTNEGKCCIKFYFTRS
The description is as above. The assay is classed as biochemical. Particulars: 83.3 nM protein; 50 mM potassium phosphate, 1 mM EDTA, pH 6.0, 25 °C.

T1 sequence (P34884 2-115): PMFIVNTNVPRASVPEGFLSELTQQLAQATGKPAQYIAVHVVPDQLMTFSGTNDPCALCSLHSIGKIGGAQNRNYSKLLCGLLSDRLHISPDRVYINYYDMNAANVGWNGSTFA

`COC(=O)CC1CC(c2ccc(O)cc2)=NO1` (centres unmarked) [ISO-1]: the “% tautomerase activity with 10 μM ISO-1” value in assay [1] is listed as “contrast to MIF, the Q586B2 tautomerase activity was not inhibited by the small molecule ISO-1”.

Take `COC(=O)[C@@H]1CC2=CC(=O)C(=O)C=C2N1` [dopachrome methyl ester]: the “% tautomerase activity of rmMIF” value in assay [2] is on record as “Q586B2 indeed exhibited a moderate tautomerase activity”.
